Test results: patent US5189038A, “Method of stimulating superoxide generation” (G. D. Searle and Co., priority 1991, dated 1993)
Several values for one entry are separate records, joined by “and”; a condition that tells them apart may be missing. Identical values can stand only once. Counter-ions that a name gives are not always drawn.

Key:
5-lipoxygenase = target: T1, 5-lipoxygenase (Rattus norvegicus, UniProt P12527); test: Inhibition of 5-lipoxygenase, in vitro (5-HETE synthesis by RBL-1 100,000×g supernatant); format: biochemical; details: for IC50: RBL-1 homogenate supernatant, 5-HETE synthesis
T1 construct: supernatant fraction of Rat Basophilic Leukemia Cell Homogenate (RBL-1) serves as a 5-lipoxygenase enzyme source; endogenous in cells; host or cells: RBL-1 (rat basophilic leukemia) cells, 100,000×g supernatant of homogenate
T1 sequence (P12527 1-673): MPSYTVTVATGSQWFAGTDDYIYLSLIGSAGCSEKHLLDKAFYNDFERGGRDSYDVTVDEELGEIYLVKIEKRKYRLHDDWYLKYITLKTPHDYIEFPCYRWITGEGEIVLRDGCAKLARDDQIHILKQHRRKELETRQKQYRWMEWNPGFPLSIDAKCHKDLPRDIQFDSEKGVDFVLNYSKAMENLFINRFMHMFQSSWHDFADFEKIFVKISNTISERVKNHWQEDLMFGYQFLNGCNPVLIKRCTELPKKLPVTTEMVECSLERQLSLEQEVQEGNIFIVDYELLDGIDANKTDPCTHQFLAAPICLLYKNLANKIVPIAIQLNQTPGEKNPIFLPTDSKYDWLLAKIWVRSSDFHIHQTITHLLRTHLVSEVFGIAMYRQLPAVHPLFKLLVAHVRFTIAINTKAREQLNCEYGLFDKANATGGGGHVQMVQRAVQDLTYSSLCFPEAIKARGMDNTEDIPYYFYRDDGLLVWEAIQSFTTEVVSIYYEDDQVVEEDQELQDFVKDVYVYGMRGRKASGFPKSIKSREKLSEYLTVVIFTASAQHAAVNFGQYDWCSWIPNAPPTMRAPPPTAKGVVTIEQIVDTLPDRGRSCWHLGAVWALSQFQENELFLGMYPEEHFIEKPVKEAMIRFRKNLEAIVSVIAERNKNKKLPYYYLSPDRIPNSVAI
Description: The compounds of the invention are evaluated with respect to 5-lipoxygenaseinhibition according to the following assay procedure.
Inhibition of 5-lipoxygenase, in vitro:
anti-inflammatory, anti-allergy activities.
The 100,000×g supernatant fraction of Rat Basophilic Leukemia Cell Homogenate (RBL-1) serves as a 5-lipoxygenase enzyme source. The enzyme is incubated with [1-^14 C)-arachidonic acid and Ca++ in the presence and absence of test compound. The product of 5-lipoxygenase, 5-hydroxyeicosatetraenoic acid (5-HETE), is separated by thin-layer chromatography and measured by radioactivity. A compound inhibiting 5-HETE synthesis by 30% or more is considered active at that concentration.

[1] = system: FMLP-stimulated human neutrophils (superoxide generation); test: Human neutrophil superoxide generation (FMLP-stimulated, cytochrome C reduction); format: cell-based; details: for activation at 5 µM / activation at 10 µM: read-out: Stimulation of FMLP Induced Superoxide, above control; for Stimulation of FMLP Induced Superoxide: concentrations at which compound stimulates: "Stimulates at" concentration range
Description: The compounds of the invention are evaluated with respect to superoxide modulating activity according to the following assay procedure:
Human neutrophil superoxide generation: Superoxide generation by formyl-methionyl-leucyl-phenylalanine (FMLP)-stimulated neutrophils was quantitated by the reduction of cytochrome C (Badwey, J. A., Curnutte, J. T. and Karnovsky, M. L., cis-Polyunsaturated fatty acids induce high levels of superoxide production by human neutrophils. J. Biol. Chem. 256: 12640-12643, 1981.) To 5 million neutrophils in 2.85 ml of KrebsRinger phosphate buffer, pH 7.2, 50 ul of inhibitor (in 10% DMSO/buffer), and 50 ul ferricytochrome C (5 mM, stock) were added and preincubated for 3 minutes at 37° C. Absorption measurements at 550 nm were recorded at start of preincubation. Fifty ul FMLP (6 uM, stock) was added to initiate reaction. A plateau was reached within 3 minutes and this reading--initial reading (before addition of FMLP) was used to calculate nanomoles of superoxide generated based on a molar extinction coefficient of 2.1×10^4 cm^-1 mole^-1.
Isolation of human neutrophils: Human neutrophils were isolated from freshly drawn blood of healthy donors. Two ml of 5% dextran (MW 200,000-300,000) in saline was added to 10 ml aliquots of blood, mixed and placed upright for 45 min. at 37° C. Approx. 8-10 ml of the plasma-white cell suspension from the dextran sedimentation was layered on 3 ml of Ficol-paque in a 15 ml tube and centrifuged at 400 g for 30 min. The supernate, containing plasma and platelets, was discarded by aspiration, and the pellet, containing predominantly neutrophils, was resuspended in 1 ml saline. The suspension was transferred to a clean tube, and pooled with other aliquots of blood treated similarly. The pooled suspension was centrifuged at 350 g for 5 min. and supernate discarded. The pellet was resuspended in 5 ml of 0.05% NaCl with a plastic Pasteur pipette for 25 seconds to lyse contaminating red cells, then 5 ml of 1.75% NaCl added to regain isotonicity. The red cell lysing procedure was repeated, the cells suspended in appropriate buffer (depending on assay) and counted.
For comparison the compound of Formula IV, a known 5-lipoxygenase inhibitor described in U.S. Pat. No. 4,755,524 was used. [drawing 20] (±)[2S*-[[3.5-bis(1,1-dimethylethyl)-4-hydroxyphenyl]thio]-1R*-methylpro poxy]acetic acid

| IC50 (5-lipoxygenase) | Structure (SMILES) | activation at 5 µM ([1]; Homo sapiens, Neutrophil) | activation at 10 µM ([1]; Homo sapiens, Neutrophil) | Stimulation of FMLP Induced Superoxide: concentrations at which compound stimulates [1] | also measured |
| --- | --- | --- | --- | --- | --- |
|  | C[C@H](Sc1cc(C(C)(C)C)c(O)c(C(C)(C)C)c1)[C@@H](C)OCC(=O)O (relative stereo) [Formula IV, (±)[2S*-[[3.5-bis(1,1-dimethylethyl)-4-hydroxyphenyl]thio]-1R*-methylpropoxy]acetic acid, reference compound] |  |  |  | Effect on 5-lipoxygenase (in words) (5-lipoxygenase): inhibited both superoxide generation and 5-lipoxygenase; IC50 ([1]; Homo sapiens, Neutrophil, inhibition of FMLP induced superoxide, read-out: Inhibited superoxide generation, IC50): 11000 nM; Effect on superoxide generation (in words) ([1]; neutrophils): inhibited both superoxide generation and 5-lipoxygenase |
|  | CN(CCc1ccccn1)C(=O)CCSc1cc(C(C)(C)C)c(O)c(C(C)(C)C)c1 [Example 5, 3-[[3,5-bis(1,1-dimethylethyl)-4-hydroxyphenyl]thio]-N-methyl-N-[2-(2-pyridinyl)ethyl]propanamide monohydrochloride] | 50% | 227% |  |  |
| 230 nM and 330 nM | Cc1cccc(C)c1NC(=O)CCSc1cc(C(C)(C)C)c(O)c(C(C)(C)C)c1 [Example 7, 3-[[3,5-bis(1,1-dimethylethyl)-4-hydroxyphenyl]thio]-N-(2,6-dimethylphenyl)propanamide] |  |  | 3 to 20 µM |  |
| 160 nM | CC(C)(C)c1cc(SCCC(=O)N2CCN(Cc3ccccc3)CC2)cc(C(C)(C)C)c1O [Example 8, 1-[3-[[3,5-Bis(1,1-dimethylethyl)4-hydroxyphenyl]thio]-1-oxopropyl]-4-(phenylmethyl)piperazine] | 150% | 206% |  |  |
| 260 nM | CC(C)C(O)CCSc1cc(C(C)(C)C)c(O)c(C(C)(C)C)c1 (centres unmarked) [Example 9, 2,6-bis(1,1-dimethylethyl)-4-[(3-hydroxy-4-methylpentyl)thio]phenol] |  |  | 5 to 50 µM |  |
| 790 nM | CC(C)C(C)(O)CCSc1cc(C(C)(C)C)c(O)c(C(C)(C)C)c1 (centres unmarked) [Example 10, 2,6-bis(1,1-dimethylethyl)-4-[(3-hydroxy-3,4-dimethylpentyl)thio]phenol] |  |  | 5 to 50 µM |  |
